The subject of data set [1] is CYP1B1. The following applies: RL-14 cells.
The subject of data set [2] is adult rat cardiomyocytes. The data set is described as follows: Adult rat cardiomyocyte viability by trypan blue assay. The format is cell-based. To be noted: 18 h; for cell death: 10 µM, trypan blue; for cell death, concentration dependence: 1, 5 and 10 µM.
Data set [3] relates to human cardiomyocytes (RL-14). The data set is described as follows: RL-14 cell viability by MTT assay. It counts as cell-based. The following applies: 10 µM, 24 h, MTT.
The test system of data set [4] is β-MHC. The data set is described as follows: β-MHC mRNA expression in RL-14 cells by real-time PCR. To be noted: 10 µM, 24 h. Background: Real-time PCR tracks product formation cycle by cycle.
Data set [5] is described as follows: Antioxidant assay kit.
Data set [6] in a line: Water solubility. The format is physicochemical. To be noted: stated in words, no test described.
Data set [7] in a line: In vitro drug release of DoxQ in PBS with 10% FBS at 37 °C, HPLC. The format is in vitro ADME.
Data set [8] addresses CYP3A4 (Homo sapiens, UniProt P08684).
In data set [9] the test system is α-MHC. The data set is described as follows: α-MHC mRNA expression in RL-14 cells by real-time PCR. The following applies: 10 µM, 24 h.
Data set [10] has as its system GST-A1. The data set is described as follows: GST-A1 mRNA expression in RL-14 cells by real-time PCR. It counts as cell-based, human. To be noted: 10 µM, 24 h.
Data set [11] concerns triple-negative murine breast cancer cell line. The data set is described as follows: Cytotoxicity by resazurin blue assay. To be noted: 72 h. The format is cell-based. On the technique in general: The colour change of resazurin is a common sign of viable cells or microbes.
The test system of data set [12] is reactive oxygen species in RL-14 cells. The data set is described as follows: Reactive oxygen species levels by DCF assay in RL-14 cells. The format is cell-based, human. To be noted: 10 µM, 24 h.
Data set [13] deals with MDCK-MDR cells (P-gp positive). The data set is described as follows: Fluorescence imaging of doxorubicin uptake by MDCK-MDR cells. The format is cell-based, canine.
Data set [14] has as its system CYP1B1. To be noted: MROD and EROD, RL-14 cells.
Data set [15] relates to BNP. The data set is described as follows: BNP mRNA expression in RL-14 cells by real-time PCR. It counts as cell-based, human. The following applies: 10 µM, 24 h.
Data set [16] can be described thus: RL-14 cell viability by MTT assay. It counts as cell-based, human. The following applies: human, RL-14 cardiomyocyte cells. Background: Tetrazolium assays rely on reduction of a dye to a coloured formazan, in cell work by metabolically active cells.
Data set [17] has as its system HO-1. The data set is described as follows: HO-1 mRNA expression in RL-14 cells by real-time PCR. The format is cell-based, human. The following applies: 10 µM, 24 h.

Structures are written as SMILES. Entries after “also recorded” stand apart in the source; their conditions may differ.

Sequence of CYP3A4 (P08684 whole entry): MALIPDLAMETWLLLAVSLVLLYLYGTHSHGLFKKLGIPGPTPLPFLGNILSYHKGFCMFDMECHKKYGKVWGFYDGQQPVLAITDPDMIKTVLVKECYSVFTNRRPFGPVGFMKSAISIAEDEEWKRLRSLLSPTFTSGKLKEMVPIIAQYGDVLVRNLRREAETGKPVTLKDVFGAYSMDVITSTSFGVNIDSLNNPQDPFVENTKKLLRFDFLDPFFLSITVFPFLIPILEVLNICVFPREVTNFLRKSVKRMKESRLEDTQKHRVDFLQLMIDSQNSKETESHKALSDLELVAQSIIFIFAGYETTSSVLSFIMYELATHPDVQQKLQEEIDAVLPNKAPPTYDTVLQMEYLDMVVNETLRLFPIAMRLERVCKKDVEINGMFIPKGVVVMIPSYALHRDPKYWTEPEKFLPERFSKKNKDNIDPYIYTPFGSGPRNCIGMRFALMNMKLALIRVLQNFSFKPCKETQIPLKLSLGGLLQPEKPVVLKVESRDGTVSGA

As to `COc1cccc2c1C(=O)c1c(O)c3c(c(O)c1C2=O)CC(O)(C(=O)CO)CC3OC1CC(NC(=O)CNC(=O)Oc2ccc(-c3oc4cc(O)cc(O)c4c(=O)c3O)cc2O)C(O)C(C)O1` (stereo not shown) [DoxQ, quercetin-Gly-Dox], the “CYP1B1 mRNA expression, in words” value in [1] is listed as “reversed these effects”. Besides, the “inhibition of CYP1B1 mRNA expression compared to doxorubicin” value in data set [1] (Fig. 15a) is recorded as “more than 4 folds”. In addition, in data set [2], the cell death was ~ 17% and the “cell death, concentration dependence” value was “dose-response effect”. Further, in [3], the cell viability turned out to be 77% and the “prevention of the cytotoxicity mediated by doxorubicin” value is given as ~ 25%. Besides, in data set [4], the “inhibition of induction of β-MHC mRNA expression compared to doxorubicin” value stood at 2.5 folds. For the same compound, in [5] (1 and 10 mM), the “antioxidant capacity compared to quercetin alone” value was “significantly higher”. Further, the “antioxidant capacity compared to a mixture of doxorubicin and quercetin” value in data set [5] (10 and 50 mM) is recorded as “significantly higher”. In addition, in data set [5] (all concentrations studied (1, 10, 50)), the “antioxidant effect compared to doxorubicin” value is recorded as “significantly higher”. The water solubility result in data set [6] is reported as “very poor”. The “duration of in vitro release of doxorubicin from the conjugate” value in [7] (Fig. 3) is reported as “more than 4 days”. The “release t1/2 of quercetin from the conjugate” value in data set [7] (aqueous medium, second-order kinetics) is “approximately 100 h”. Besides, the “CYP3A4 inhibition (percentage relative to ketoconazole), in words” value in [8] (0.01, 0.1, 1, 10, 50 and 100 µM) is “inhibited CYP3A4 at all the concentrations tested”. Moreover, the “concentration with the highest CYP3A4 inhibition” value in data set [8] (range tested 0.01-100 µM) is 10 nM. Moreover, in data set [9], the “inhibition of induction of α-MHC mRNA expression compared to doxorubicin” value worked out at 1.5 folds. Moreover, in data set [10], the “lowering of GST-A1 mRNA expression in comparison to doxorubicin” value came out at 1.5 folds. In data set [11], the “IC50 relative to doxorubicin alone or a mixture of doxorubicin and quercetin” value was “more than twofold higher”; the “cytotoxicity compared to doxorubicin or mixture” value is “substantially less toxic”. Also, in data set [11] (given in words), the IC50 entry is listed as “micromolar range”. Further, the “difference in ROS level versus free doxorubicin” value in [12] is given as ~ 234%. Moreover, the “fluorescence signal in cells compared to free doxorubicin” value in [13] (50 nM, Fig. 4) is on record as “higher”. Further, the “drug uptake (fluorescence signal, ImageJ) compared to free doxorubicin” value in data set [13] (after 5-min treatment, Fig. 5a) is “significantly enhanced”. Further, the “CYP1B1 catalytic activity, in words” value in data set [14] was “significantly inhibited; also recorded: reversed these effects”. For the same compound, the “inhibition of induction of BNP mRNA expression compared to doxorubicin” value in data set [15] was 6 folds.
For `COc1cccc2c1C(=O)c1c(O)c3c(c(O)c1C2=O)C[C@@](O)(C(=O)CO)C[C@@H]3O[C@H]1C[C@H](N)[C@H](O)[C@H](C)O1` [doxorubicin, Doxorubicin, reference compound], in [1], the “CYP1B1 mRNA expression, in words” value is “induced”. Moreover, in data set [2], the cell death was ~ 22% and the “cell death, concentration dependence” value was “dose-response effect”. The compound further registered a viability at 24 h, 10 µM in data set [16] of 52%. In data set [4], the “β-MHC mRNA expression versus control, in words” value was “induced”. Also, the “α-MHC mRNA expression versus control, in words” value in data set [9] is reported as “induced”. Besides, the “HO-1 expression lower compared to cells treated with DoxQ” value in data set [17] is 1 fold. Moreover, the “CYP1B1 catalytic activity, in words” value in data set [14] was “induced”. For the same compound, in [15], the “BNP mRNA expression versus control, in words” value is listed as “induced”.

For orientation: cell viability means a per cent measure of how many cells are alive, often set against a control. Higher therefore signals less harm to the cells. One may read the viability as a read-out of living cells in per cent, often relative to untreated cells. Higher therefore signals less harm to the cells.

The values above are taken from PMC5522622 (Drug delivery and translational research, 2017).
